Measurements published in ChEMBL document CHEMBL1152093, “The effect of propargylic substitution on the activation and aromatization of enediynes” (Bioorg Med Chem Lett, 1994).

Experiments:
HCT-116 = experiment: In vitro cytotoxicity against 116 human colon tumor cell line (HCT116); type: functional, cell-based
Mus musculus [1] = experiment: Compound was tested in vivo in mice against Madison 109 lung carcinoma cell line (M109) in a pretreated group over a control group at 128 mg/kg/inj; type: functional
Mus musculus [2] = experiment: Compound was tested in vivo in mice against Madison 109 lung carcinoma cell line (M109) in a pretreated group over a control group at 32 mg/kg/inj; type: functional
Mus musculus [3] = experiment: Compound was tested in vivo in mice against Madison 109 lung carcinoma cell line (M109) in a pretreated group over a control group at 16 mg/kg/inj; type: functional
Mus musculus [4] = experiment: Compound was tested in vivo in mice against Madison 109 lung carcinoma cell line (M109) in a pretreated group over a control group at 64 mg/kg/inj; type: functional

For CC(C)(C)[Si](C)(C)O[C@@]12C#C/C=C\C#C[C@H](O)C(=CCC1)C2=O, the IC50 (HCT-116) was > 2000 nM and the T/C (Mus musculus [1]) was 115%.
CC(C)(C)[Si](C)(C)O[C@@]12C#C/C=C\C#C[C@@H](F)C(=CCC1)C2=O was tested, and the IC50 (HCT-116) was 24 nM and the T/C (Mus musculus [2]) was 112%.
CC(C)(C)[Si](C)(C)O[C@@]12C#C/C=C\C#C[C@@H](O)C(=CCC1)C2=O was tested, and the IC50 (HCT-116) was 100 nM and the T/C (Mus musculus [3]) was 144%.
CC(C)(C)[Si](C)(C)O[C@@]12C#C/C=C\C#C[C@@H](OC(=O)COc3ccccc3)C(=CCC1)C2=O gave a T/C (Mus musculus [4]) of 143% and an IC50 (HCT-116) of 190 nM.
In the case of CC(C)(C)[Si](C)(C)O[C@@]12C#C/C=C\C#CCC(=CCC1)C2=O, the IC50 (HCT-116) is reported as > 2000 nM.
